Experimental data taken from ChEMBL document CHEMBL4814007, “Structure-based discovery of SIAIS001 as an oral bioavailability ALK degrader constructed from Alectinib” (Eur J Med Chem, 2021).
Values belong to the molecule of their own block, whether it stands above or below them. Calls of active or inactive are those of the source. No cut-off for these calls is given here.

What was measured:
SR [1] = test: Antiproliferative activity against ALK positive human SR cells; format: functional, cell-based
[2] = molecular target: T1, von Hippel-Lindau disease tumor suppressor/ALK tyrosine kinase receptor (Homo sapiens) (UniProt Q9UM73+P40337); test: Protac activity at VHL/ALK in human SR cells assessed as protein abundance at 5 nM by Western blot analysis (reference value: 1); format: cell-based
T1 sequence (P40337 whole entry partner): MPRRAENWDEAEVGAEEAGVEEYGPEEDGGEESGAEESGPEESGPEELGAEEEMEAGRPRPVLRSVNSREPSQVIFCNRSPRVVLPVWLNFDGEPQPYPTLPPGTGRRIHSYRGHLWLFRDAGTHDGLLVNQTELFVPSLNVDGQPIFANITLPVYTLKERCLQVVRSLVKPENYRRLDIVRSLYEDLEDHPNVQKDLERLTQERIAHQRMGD
T1 sequence (Q9UM73 19-1620 limits assumed): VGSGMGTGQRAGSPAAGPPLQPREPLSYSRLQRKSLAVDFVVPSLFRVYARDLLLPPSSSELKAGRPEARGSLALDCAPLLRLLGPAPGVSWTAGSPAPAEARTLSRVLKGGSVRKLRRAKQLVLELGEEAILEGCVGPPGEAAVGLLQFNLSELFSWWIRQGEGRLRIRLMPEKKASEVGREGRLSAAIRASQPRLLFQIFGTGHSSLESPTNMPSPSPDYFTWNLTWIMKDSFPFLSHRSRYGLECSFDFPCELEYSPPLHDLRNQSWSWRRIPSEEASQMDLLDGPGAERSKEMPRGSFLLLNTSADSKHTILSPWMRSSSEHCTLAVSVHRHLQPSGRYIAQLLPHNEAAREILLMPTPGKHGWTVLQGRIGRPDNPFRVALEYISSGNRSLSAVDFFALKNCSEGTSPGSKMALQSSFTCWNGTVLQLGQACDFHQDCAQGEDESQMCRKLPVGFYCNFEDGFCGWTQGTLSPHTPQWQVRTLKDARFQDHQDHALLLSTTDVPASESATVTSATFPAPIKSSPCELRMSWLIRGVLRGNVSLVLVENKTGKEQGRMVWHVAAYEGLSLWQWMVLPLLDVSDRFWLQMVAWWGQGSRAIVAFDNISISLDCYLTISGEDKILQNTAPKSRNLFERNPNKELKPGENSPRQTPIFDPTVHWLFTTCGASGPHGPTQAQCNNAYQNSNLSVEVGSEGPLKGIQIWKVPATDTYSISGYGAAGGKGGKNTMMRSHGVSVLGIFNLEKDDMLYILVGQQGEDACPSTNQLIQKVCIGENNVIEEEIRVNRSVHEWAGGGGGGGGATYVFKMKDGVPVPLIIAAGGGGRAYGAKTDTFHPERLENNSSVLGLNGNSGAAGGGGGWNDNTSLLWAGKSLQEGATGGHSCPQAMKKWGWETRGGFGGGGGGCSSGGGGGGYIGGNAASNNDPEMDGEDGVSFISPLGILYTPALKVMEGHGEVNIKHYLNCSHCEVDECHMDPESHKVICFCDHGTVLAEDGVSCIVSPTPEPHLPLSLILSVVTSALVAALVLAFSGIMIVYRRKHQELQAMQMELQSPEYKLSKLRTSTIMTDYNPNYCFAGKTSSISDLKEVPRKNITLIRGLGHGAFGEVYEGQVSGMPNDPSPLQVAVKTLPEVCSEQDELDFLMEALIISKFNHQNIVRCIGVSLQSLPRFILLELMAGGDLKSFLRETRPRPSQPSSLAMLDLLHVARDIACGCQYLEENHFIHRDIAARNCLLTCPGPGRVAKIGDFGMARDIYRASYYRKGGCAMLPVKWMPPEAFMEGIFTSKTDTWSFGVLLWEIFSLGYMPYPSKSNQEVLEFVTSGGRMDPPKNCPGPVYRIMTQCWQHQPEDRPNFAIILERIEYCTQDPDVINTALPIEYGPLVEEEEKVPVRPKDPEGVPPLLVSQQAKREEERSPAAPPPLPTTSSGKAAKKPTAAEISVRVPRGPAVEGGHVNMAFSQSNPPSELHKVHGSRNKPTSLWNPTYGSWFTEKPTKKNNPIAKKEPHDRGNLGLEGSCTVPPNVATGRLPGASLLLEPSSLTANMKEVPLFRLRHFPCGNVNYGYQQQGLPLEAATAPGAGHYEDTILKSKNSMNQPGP

[3] = molecular target: T1, von Hippel-Lindau disease tumor suppressor/ALK tyrosine kinase receptor (Homo sapiens); test: Protac activity at VHL/ALK in human SR cells assessed as protein abundance at 500 nM by Western blot analysis (reference value: 1); format: cell-based
[4] = molecular target: T1, von Hippel-Lindau disease tumor suppressor/ALK tyrosine kinase receptor (Homo sapiens); test: Protac activity at VHL/ALK in human SR cells assessed as protein abundance at 0.5 nM by Western blot analysis (reference value: 1); format: cell-based
[5] = molecular target: T1, von Hippel-Lindau disease tumor suppressor/ALK tyrosine kinase receptor (Homo sapiens); test: Protac activity at VHL/ALK in human SR cells assessed as protein abundance at 0.05 nM by Western blot analysis (reference value: 1); format: cell-based
[6] = molecular target: T1, von Hippel-Lindau disease tumor suppressor/ALK tyrosine kinase receptor (Homo sapiens); test: Protac activity at VHL/ALK in human SR cells assessed as protein abundance at 50 nM by Western blot analysis (reference value: 1); format: cell-based
[7] = molecular target: T1, von Hippel-Lindau disease tumor suppressor/ALK tyrosine kinase receptor (Homo sapiens); test: Protac activity at VHL1/ALK in human SR cells assessed as increase in ALK degradation at 500 nM by Western blot analysis; format: cell-based
[8] = molecular target: T2, Protein cereblon/ALK tyrosine kinase receptor (Homo sapiens, UniProt Q9UM73+Q96SW2); test: Protac activity at CRBN/ALK in human SR cells assessed as protein abundance at 0.05 nM by Western blot analysis (reference value: 1); format: cell-based
Target sequence in this assay (Q96SW2 whole entry partner): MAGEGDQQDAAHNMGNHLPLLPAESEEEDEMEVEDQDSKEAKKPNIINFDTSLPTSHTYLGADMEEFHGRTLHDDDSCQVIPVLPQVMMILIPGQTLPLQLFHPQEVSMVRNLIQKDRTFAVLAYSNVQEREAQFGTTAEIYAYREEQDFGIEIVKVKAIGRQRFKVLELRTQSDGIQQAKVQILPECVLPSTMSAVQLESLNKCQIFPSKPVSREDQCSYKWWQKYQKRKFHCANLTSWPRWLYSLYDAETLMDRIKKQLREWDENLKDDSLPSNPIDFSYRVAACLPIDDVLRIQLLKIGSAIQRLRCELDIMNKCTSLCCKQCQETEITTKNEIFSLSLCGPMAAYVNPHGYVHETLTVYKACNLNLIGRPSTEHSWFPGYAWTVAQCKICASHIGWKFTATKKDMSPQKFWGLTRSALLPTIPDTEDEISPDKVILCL
Target sequence in this assay (Q9UM73 19-1620 limits assumed): as the sequence (Q9UM73 19-1620 limits assumed) above

[9] = molecular target: T2, Protein cereblon/ALK tyrosine kinase receptor; test: Protac activity at CRBN/ALK in human SR cells assessed as protein abundance at 50 nM by Western blot analysis (reference value: 1); format: cell-based
Target sequence in this assay (Q96SW2 whole entry partner): as the sequence (Q96SW2 whole entry partner) above
Target sequence in this assay (Q9UM73 19-1620 limits assumed): as the sequence (Q9UM73 19-1620 limits assumed) above

[10] = molecular target: T2, Protein cereblon/ALK tyrosine kinase receptor; test: Protac activity at CRBN/ALK in human SR cells assessed as protein abundance at 500 nM by Western blot analysis (reference value: 1); format: cell-based
Target sequence in this assay (Q96SW2 whole entry partner): as the sequence (Q96SW2 whole entry partner) above
Target sequence in this assay (Q9UM73 19-1620 limits assumed): as the sequence (Q9UM73 19-1620 limits assumed) above

[11] = molecular target: T2, Protein cereblon/ALK tyrosine kinase receptor; test: Protac activity at CRBN/ALK in human SR cells assessed as protein abundance at 5 nM by Western blot analysis (reference value: 1); format: cell-based
Target sequence in this assay (Q96SW2 whole entry partner): as the sequence (Q96SW2 whole entry partner) above
Target sequence in this assay (Q9UM73 19-1620 limits assumed): as the sequence (Q9UM73 19-1620 limits assumed) above

[12] = molecular target: T2, Protein cereblon/ALK tyrosine kinase receptor; test: Protac activity at CRBN/ALK in human SR cells assessed as increase in ALK degradation at 500 nM by Western blot analysis; format: cell-based
Target sequence in this assay (Q96SW2 whole entry partner): as the sequence (Q96SW2 whole entry partner) above
Target sequence in this assay (Q9UM73 19-1620 limits assumed): as the sequence (Q9UM73 19-1620 limits assumed) above

[13] = molecular target: T2, Protein cereblon/ALK tyrosine kinase receptor; test: Protac activity at CRBN/ALK in human SR cells assessed as protein abundance at 0.5 nM by Western blot analysis (reference value: 1); format: cell-based
Target sequence in this assay (Q96SW2 whole entry partner): as the sequence (Q96SW2 whole entry partner) above
Target sequence in this assay (Q9UM73 19-1620 limits assumed): as the sequence (Q9UM73 19-1620 limits assumed) above

[14] = molecular target: T2, Protein cereblon/ALK tyrosine kinase receptor; test: Protac activity at CRBN/ALK in human SR cells assessed as induction of ALK degradation at 0.05 to 500 nM by Western blot analysis relative to control; format: cell-based; conditions: dose 0.05-500 nM
SR [15] = test: Induction of cell cycle arrest in human SR cells assessed as increase in accumulation at G1/S phase at 100 nM incubated for 24 hrs; format: functional, cell-based
[16] = molecular target: T3, ALK tyrosine kinase receptor (Homo sapiens, UniProt Q9UM73); test: Inhibition of ALK (unknown origin)
Target sequence in this assay (Q9UM73 whole entry): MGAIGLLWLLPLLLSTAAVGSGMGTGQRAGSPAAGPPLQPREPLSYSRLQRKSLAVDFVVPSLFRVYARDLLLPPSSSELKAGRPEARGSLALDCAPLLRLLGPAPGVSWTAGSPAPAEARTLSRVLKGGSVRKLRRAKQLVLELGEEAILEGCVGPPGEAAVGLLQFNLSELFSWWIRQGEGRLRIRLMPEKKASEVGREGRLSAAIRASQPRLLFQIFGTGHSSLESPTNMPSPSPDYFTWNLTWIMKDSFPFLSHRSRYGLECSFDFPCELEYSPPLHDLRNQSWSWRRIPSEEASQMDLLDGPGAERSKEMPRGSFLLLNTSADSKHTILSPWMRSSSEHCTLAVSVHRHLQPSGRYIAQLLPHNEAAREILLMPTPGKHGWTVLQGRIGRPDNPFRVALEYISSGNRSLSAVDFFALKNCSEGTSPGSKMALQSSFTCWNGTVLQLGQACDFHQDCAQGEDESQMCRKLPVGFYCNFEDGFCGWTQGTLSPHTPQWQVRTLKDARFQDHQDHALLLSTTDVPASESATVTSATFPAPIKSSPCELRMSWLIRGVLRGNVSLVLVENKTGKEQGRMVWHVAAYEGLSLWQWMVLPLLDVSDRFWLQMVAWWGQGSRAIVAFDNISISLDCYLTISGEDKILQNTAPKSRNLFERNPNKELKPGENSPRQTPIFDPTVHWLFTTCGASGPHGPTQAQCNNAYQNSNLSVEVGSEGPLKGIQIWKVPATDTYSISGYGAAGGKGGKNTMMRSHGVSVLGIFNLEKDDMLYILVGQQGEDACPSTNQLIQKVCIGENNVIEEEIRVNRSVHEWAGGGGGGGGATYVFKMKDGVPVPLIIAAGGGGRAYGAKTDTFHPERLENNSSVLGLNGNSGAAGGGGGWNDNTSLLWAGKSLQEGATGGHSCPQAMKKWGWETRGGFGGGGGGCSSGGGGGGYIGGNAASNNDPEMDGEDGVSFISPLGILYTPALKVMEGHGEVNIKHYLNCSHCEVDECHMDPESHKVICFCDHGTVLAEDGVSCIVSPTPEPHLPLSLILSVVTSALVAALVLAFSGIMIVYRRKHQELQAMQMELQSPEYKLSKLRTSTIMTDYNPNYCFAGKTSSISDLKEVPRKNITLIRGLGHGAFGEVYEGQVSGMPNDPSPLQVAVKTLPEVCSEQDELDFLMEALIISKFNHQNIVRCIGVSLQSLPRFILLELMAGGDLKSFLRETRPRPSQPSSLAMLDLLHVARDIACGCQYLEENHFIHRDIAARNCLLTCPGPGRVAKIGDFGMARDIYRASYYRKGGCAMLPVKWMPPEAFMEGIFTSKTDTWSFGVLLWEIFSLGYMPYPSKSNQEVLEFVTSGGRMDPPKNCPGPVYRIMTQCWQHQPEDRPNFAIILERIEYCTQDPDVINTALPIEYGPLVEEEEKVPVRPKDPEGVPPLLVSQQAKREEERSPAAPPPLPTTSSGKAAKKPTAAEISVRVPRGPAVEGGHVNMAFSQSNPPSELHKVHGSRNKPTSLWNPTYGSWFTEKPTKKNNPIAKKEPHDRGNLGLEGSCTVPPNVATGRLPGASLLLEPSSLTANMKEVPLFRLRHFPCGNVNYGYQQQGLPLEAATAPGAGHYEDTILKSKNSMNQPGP

[17] = molecular target: T3, ALK tyrosine kinase receptor; test: Inhibition of ALK in human SR cells assessed as reduction in STAT3 phosphorylation at 50 nM; format: cell-based
Target sequence in this assay (Q9UM73 19-1620 limits assumed): as the sequence (Q9UM73 19-1620 limits assumed) above

[18] = molecular target: T2, Protein cereblon/ALK tyrosine kinase receptor; test: Protac activity at CRBN/ALK in human SR cells assessed as increase in ALK degradation at 50 nM in presence of MLN4924/MG132 by Western blot analysis; format: cell-based
[19] = molecular target: T2, Protein cereblon/ALK tyrosine kinase receptor; test: Protac activity at CRBN/ALK in human SR cells assessed as induction of ALK degradation by Western blot analysis; format: cell-based
Target sequence in this assay (Q9UM73 whole entry): as the sequence (Q9UM73 whole entry) above
Target sequence in this assay (Q96SW2 whole entry): as the sequence (Q96SW2 whole entry partner) above

SR [20] = test: Potency index, ratio of alectinib IC50 to test compound IC50 for antiproliferative activity against ALK positive human SR cells; format: functional
SR [21] = test: Induction of cell cycle arrest in human SR cells assessed as increase in accumulation at S phase at 100 nM incubated for 24 hrs; format: functional, cell-based
SR [22] = test: Potency index, ratio of ceritinib IC50 to test compound IC50 for antiproliferative activity against ALK positive human SR cells; format: functional
[23] = molecular target: T2, Protein cereblon/ALK tyrosine kinase receptor; test: Protac activity at CRBN/ALK in human SR cells assessed as increase in ALK degradation at 200 nM by Western blot analysis relative to control; format: cell-based
[24] = molecular target: T2, Protein cereblon/ALK tyrosine kinase receptor; test: Protac activity at CRBN/ALK in human SR cells assessed as increase in ALK degradation at 50 nM in presence of MG132 by Western blot analysis; format: cell-based
[25] = molecular target: T3, ALK tyrosine kinase receptor; test: Inhibition of ALK phosphorylation in human SR cells at 0.5 nM; format: cell-based
Target sequence in this assay (Q9UM73 19-1620 limits assumed): as the sequence (Q9UM73 19-1620 limits assumed) above

SMILES: Cc1cc(Nc2ncc(Cl)c(Nc3ccccc3S(=O)(=O)C(C)C)n2)c(OC(C)C)cc1C1CCNCC1 [CERITINIB]
- IC50 (SR [1]): 2.2 nM

SMILES: CCc1cc2c(cc1N1CCC(N3CCN(C(=O)CCCCNc4cccc5c4CN(C4CCC(=O)NC4=O)C5=O)CC3)CC1)C(C)(C)c1[nH]c3cc(C#N)ccc3c1C2=O (stereo not given)
- IC50 (SR [1]): 4.7 nM

SMILES: CCc1cc2c(cc1N1CCC(N)CC1)C(C)(C)c1[nH]c3cc(C#N)ccc3c1C2=O
- IC50 (SR [1]): 2.8 nM

SMILES: CCc1cc2c(cc1N1CCC(N3CCN(C(=O)CCOCCOCCNc4cccc5c4C(=O)N(C4CCC(=O)NC4=O)C5=O)CC3)CC1)C(C)(C)c1[nH]c3cc(C#N)ccc3c1C2=O (stereo not given)
- IC50 (SR [1]): 2.5 nM

SMILES: CCc1cc2c(cc1N1CCN(C(=O)CCCNc3cccc4c3C(=O)N(C3CCC(=O)NC3=O)C4=O)CC1)C(C)(C)c1[nH]c3cc(C#N)ccc3c1C2=O (stereo not given)
- IC50 (SR [1]): 9.2 nM

SMILES: CCc1cc2c(cc1N1CCC(N3CCN(C(=O)CCCNc4cccc5c4CN(C4CCC(=O)NC4=O)C5=O)CC3)CC1)C(C)(C)c1[nH]c3cc(C#N)ccc3c1C2=O (stereo not given)
- IC50 (SR [1]): 3.3 nM

- Activity [2]: 1.04
- Activity [3]: 0.43
- Activity [4]: 1.14
- Activity [5]: 0.96
- Activity [6]: 0.93
- Activity [7]: Active
SMILES: CCc1cc2c(cc1N1CCC(N3CCN(C(=O)CCCCC(=O)NC(C(=O)N4C[C@H](O)C[C@H]4C(=O)NCc4ccc(-c5scnc5C)cc4)C(C)(C)C)CC3)CC1)C(C)(C)c1[nH]c3cc(C#N)ccc3c1C2=O (single isomer, unassigned)
- IC50 (SR [1]): 32.5 nM

SMILES: CCc1cc2c(cc1N1CCC(N3CCN(C(=O)CCCCCNc4cccc5c4C(=O)N(C4CCC(=O)NC4=O)C5=O)CC3)CC1)C(C)(C)c1[nH]c3cc(C#N)ccc3c1C2=O (stereo not given)
- IC50 (SR [1]): 3.4 nM

- Activity [8]: 1.05
- Activity [9]: 0.55
- Activity [10]: 0.47
- Activity [11]: 0.66
- Activity [12]: Active
- Activity [13]: 0.82
SMILES: CCc1cc2c(cc1N1CCC(N3CCN(C(=O)CCCNc4cccc5c4C(=O)N(C4CCC(=O)NC4=O)C5=O)CC3)CC1)C(C)(C)c1[nH]c3cc(C#N)ccc3c1C2=O (stereo not given)
- IC50 (SR [1]): 12.9 nM

- Activity [8]: 1.08
- Activity [9]: 0.67
- Activity [10]: 0.69
- Activity [11]: 0.76
- Activity [13]: 1.09
SMILES: CCc1cc2c(cc1N1CCC(N3CCN(CCCCCC#Cc4cccc5c4CN(C4CCC(=O)NC4=O)C5=O)CC3)CC1)C(C)(C)c1[nH]c3cc(C#N)ccc3c1C2=O (stereo not given)
- IC50 (SR [1]): 1.8 nM

SMILES: CCc1cc2c(cc1N1CCC(N3CCNCC3)CC1)C(C)(C)c1[nH]c3cc(C#N)ccc3c1C2=O
- IC50 (SR [1]): 4.9 nM

SMILES: COc1cc(N2CCC(N3CCN(C)CC3)CC2)ccc1Nc1ncc(Cl)c(Nc2ccccc2P(C)(C)=O)n1 [BRIGATINIB]
- IC50 (SR [1]): 1.9 nM

SMILES: CCc1cc2c(cc1N1CCNCC1)C(C)(C)c1[nH]c3cc(C#N)ccc3c1C2=O
- IC50 (SR [1]): 0.8 nM

SMILES: CCc1cc2c(cc1N1CCC(NC(=O)CNc3cccc4c3C(=O)N(C3CCC(=O)NC3=O)C4=O)CC1)C(C)(C)c1[nH]c3cc(C#N)ccc3c1C2=O (stereo not given)
- IC50 (SR [1]): 13.5 nM

- Activity [7]: Active
SMILES: CCc1cc2c(cc1N1CCC(N3CCN(C(=O)CCCCCCCCC(=O)NC(C(=O)N4C[C@H](O)C[C@H]4C(=O)NCc4ccc(-c5scnc5C)cc4)C(C)(C)C)CC3)CC1)C(C)(C)c1[nH]c3cc(C#N)ccc3c1C2=O (single isomer, unassigned)
- IC50 (SR [1]): 18 nM

SMILES: CCc1cc2c(cc1N1CCN(C(=O)CCOCCOCCOCCOCCNc3cccc4c3C(=O)N(C3CCC(=O)NC3=O)C4=O)CC1)C(C)(C)c1[nH]c3cc(C#N)ccc3c1C2=O (stereo not given)
- IC50 (SR [1]): 11.9 nM

- Activity [8]: 1.01
- Activity [9]: 0.7
- Activity [10]: 0.53
- Activity [11]: 0.96
- Activity [12]: Active
- Activity [13]: 1.03
SMILES: CCc1cc2c(cc1N1CCC(N3CCN(C(=O)CCOCCOCCOCCOCCNc4cccc5c4C(=O)N(C4CCC(=O)NC4=O)C5=O)CC3)CC1)C(C)(C)c1[nH]c3cc(C#N)ccc3c1C2=O (stereo not given)
- IC50 (SR [1]): 3.1 nM

- Activity [8]: 0.9
- Emax [14]: 87.7%
- IC50 [16]: 4.7 nM
- inhibition [17]: inactive
- Activity [18]: inactive
- Activity [9]: 0.24
- DC50 [19]: 6300 nM
- Activity [10]: 0.27
- Activity [11]: 0.48
- Activity [12]: Active
- Activity [13]: 0.67
- Activity [23]: > 50%
- Activity [24]: inactive
- inhibition [25]: inactive
SMILES: CCc1cc2c(cc1N1CCC(N3CCN(C(=O)CNc4cccc5c4CN(C4CCC(=O)NC4=O)C5=O)CC3)CC1)C(C)(C)c1[nH]c3cc(C#N)ccc3c1C2=O (stereo not given)
- Activity (SR [15]): Active
- Ratio (SR [20]): 6
- IC50 (SR [1]): 0.5 nM
- Activity (SR [21]): inactive
- Ratio (SR [22]): 5
